Entries after “also recorded” stand apart in the source; their conditions may differ.
Columns and labels:
[1] = system: wild-type mice; assay: Spontaneous activity in the open field, wild-type mice; type: in vivo; conditions: WT mice; 2 mg/kg SC
Protocol: Male and female wild-type and homozygous mutant dopamine transporter KO mice (n˜10 mice/genotype/agent; produced by in vivo homologous recombination and bred at Duke University Medical Center, Durham, N.C.) were tested for spontaneous activity in the open field following a single injection of the vehicle or compound. Mice were placed into the open field for 30 min and administered SC the vehicle (sterile water), 2 mg/kg amphetamine, or three concentrations of the test compound (10, 30, 100 mg/kg). All drugs were given in a volume of 5 mL/kg. Animals were returned to the open field for an additional 90 min. Spontaneous activity was evaluated in an automated Omnitech Digiscan apparatus (Accuscan Instruments, Columbus, Ohio). […] Horizontal activity or locomotion was measured in terms of the total distance covered in cm, vertical activity or rearing was expressed in terms of the total numbers of vertical beam breaks, and stereotypy was quantified in terms of repetitive breaks of a given beam or beams with intervals of less than 1 sec. […] Data were analyzed by the Statistical Package for Social Sciences programs (version 11.0 for Windows; SPSS Science, Chicago, Ill.). The results for each dependent variable were analyzed by repeated analyses of variance (RMANOVA) for within subjects effects (group differences over time) and between-subjects effects (tests of main effects and interactions). […]

[2] = system: homozygous mutant dopamine transporter knockout (KO) mice; assay: Spontaneous activity in the open field, dopamine transporter KO mice; type: in vivo
Protocol: Male and female wild-type and homozygous mutant dopamine transporter KO mice (n˜10 mice/genotype/agent; produced by in vivo homologous recombination and bred at Duke University Medical Center, Durham, N.C.) were tested for spontaneous activity in the open field following a single injection of the vehicle or compound. […] All drugs were given in a volume of 5 mL/kg. Animals were returned to the open field for an additional 90 min. Spontaneous activity was evaluated in an automated Omnitech Digiscan apparatus (Accuscan Instruments, Columbus, Ohio). Activity was summated at 5 min intervals over the 2 h period of testing. Horizontal activity or locomotion was measured in terms of the total distance covered in cm, vertical activity or rearing was expressed in terms of the total numbers of vertical beam breaks, and stereotypy was quantified in terms of repetitive breaks of a given beam or beams with intervals of less than 1 sec. For the analyses, 10 WT and 10 KO mice were run in each of the treatment groups with approximately equal numbers of males and females assigned to each group. Data were analyzed by the Statistical Package for Social Sciences programs (version 11.0 for Windows; SPSS Science, Chicago, Ill.). The results for each dependent variable were analyzed by repeated analyses of variance (RMANOVA) for within subjects effects (group differences over time) and between-subjects effects (tests of main effects and interactions). Bonferroni corrected pair-wise comparisons were used as the post-hoc tests. A p<0.05 was considered significant.

[3] = molecular target: T1, hNET (human norepinephrine transporter) (Homo sapiens, UniProt P23975); assay: biochemical; type: binding; conditions: HEK-hNET cells, mean ± SEM
T1 construct: expressed in transfected cells; host or cells: HEK293 cells (ATCC), clonal, kept under geneticin selection

[4] = molecular target: T1, hNET (human norepinephrine transporter); assay: cell-based; conditions: HEK-hNET cells; mean ± SEM; read-out: [3H]NE Uptake IC50
[5] = molecular target: T2, hDAT (human dopamine transporter) (Homo sapiens, UniProt Q01959); assay: Inhibition of [125I]RTI-55 radioligand binding to hDAT in HEK293 cell membranes
T2 construct: expressed in transfected cells; host or cells: HEK293 cells (ATCC), clonal, kept under puromycin selection

[6] = system: hypocretin cell ablated narcoleptic mice (prepororexin/ataxin-3 transgenic); assay: Sleep parameters (EEG/EMG) in narcoleptic mice; type: in vivo; conditions: for Duration of continuous wakefulness: resting period (ZT 2)
Description: (§1) The polygraph signal (EEG (electroencephalography) and EMG (electromyography)) was captured with SleepSign (Kissei Comtech), and the sleep stage was visually scored with 10 sec epoch for wakefulness, non-REM sleep and REM sleep. Scoring criteria are: Wakefulness is characterized by desynchronized low-amplitude, mixed frequency (>4 Hz) EEG and high EMG activity. Rhythmic alpha (8-9 Hz) wave (with high EMG activities) may also appear. Non-REM is characterized by synchronized, high-amplitude, low-frequency (0.25-4 Hz) with reduced EMG activity (compared to wakefulness). EEG activity in REM sleep is similar to that in wakefulness, with desynchronized, mixed frequency low amplitude waves. Rhythmic alpha (8-9 Hz) wave with reduced EMG activities may also appear. […] activity during REM sleep is reduced even further and in many cases, completely absent. Some muscle twitching may be apparent in the EMG trace during REM sleep.
(§2) Three drug doses of the test compound (50, 100 and 150 mg/kg PO) plus vehicle, was orally administered at ZT 2 (Zeitgeber time: 2 hours after light on) or ZT14 (Zeitgeber time: 2 hours after light off) and the effects on sleep was monitored for 6 hours after the drug administration (the sleep data was collected for 30 hours after the drug injection, and are available for further analysis). The doses for modafinil were 50 and 200 mg/kg PO (plus vehicle), and modafinil was also administered at ZT 2 and ZT 14.
(§3) If the polygraph signals of some mice were not sufficient to score the sleep stage with accuracy (especially bad EMG), data from these animals were excluded, and the minimum of 5 animals (except for the highest dose of the test compound in wild-type mice in dark period, n=4) were included for the data analysis and number of animals were indicated in the figures.
(§4) Effects of test compound and modafinil on the amount of wake, non-REM sleep, REM sleep (cumulative seconds), number of episodes for each sleep stage during 6 hours, mean wake/sleep-bout lengths (seconds) were analyzed in each animal and the mean of each parameter was calculated in each genotype. The effects of compounds on wake and sleep amounts are useful to evaluate the wake promoting potency, and the number of episodes for each sleep stage and the mean wake/sleep bout length are parameters for evaluating the sleep fragmentation. Amphetamine and modafinil, two main wake-promoting compounds currently used for the treatment of EDS associated with various etiologies (narcolepsy, idiopathic hypersomnia and secondary EDS), are known to increase wake time and prolong wake bout length in normal and EDS conditions.
(§5) A comparison of the effects between hypocretin deficient and wild-type mice is very useful in determining if the wake-promotion of the test compound is dependent on the availability of hypocretins, and if there is a possible change in the sensitivity of the receptive mechanisms of test compound in narcoleptic mice due to the hypocretin ligand deficiency.

[7] = system: littermate wild-type mice; assay: Sleep parameters (EEG/EMG) in littermate wild-type mice; type: in vivo; conditions: for Duration of continuous wakefulness: resting period (ZT 2)
Description: as §1, §2, §3, §4, §5

[8] = system: rats with sciatic nerve ligation; assay: Thermal hyperalgesia (hindpaw withdrawal latency, plantar tester) in rats with sciatic nerve ligation; type: in vivo, Sprague-Dawley rats; conditions: 30 mg/kg IP; for Mean paw withdrawal latency: n = 6, mean ± SEM
Protocol: Young adult male Sprague-Dawley rats (CD(SD)IGS, 150-200 g) were initially anesthetized with isoflurane in O2 by a mask and the surgical procedure was performed according to the method described by Bennett and Xie (1988). Briefly, the right sciatic nerves were loosely tied using ligatures. All experiments were conducted in accordance with the guidelines of the International Association for the Study of Pain. The behavioral tests were conducted at least 14 days postoperatively.
The test compound was dissolved in saline and administered intraperitoneally at 30 mg/kg to animals in a volume of 3 mL/kg body weight.
To test for thermal hyperalgesia, the thermal response was determined by the hindpaw withdrawal latency, using a plantar tester (UGO BASILE, Italy), and a modified method of Hargreaves et al. (1988). Rats were allowed to acclimate within plastic enclosures on a clear glass plate maintained at room temperature. A radiant heat source (intensity 90) was controlled with a timer and focused onto the plantar surface of the rat right hind paw encompassing the glabrous skin. Paw withdrawal stopped both heat source and timer. A maximal cut-off 30 sec was used to prevent tissue damage. Rats were assessed for thermal hyperalgesia predose (0 hr) and at 1, 4 and 8 hours after 30 mg/kg test compound administration.
Data are expressed as mean±standard error of mean (SEM). The values of behavioral signs of neuropathic pain at various postoperative time points were compared with those of the preoperative control period by a repeated-measure One-way Analysis of Variance (followed by Dunnett's post-hoc test). P-values less than 0.05 were considered to be significant.

[9] = molecular target: T3, hSERT (human serotonin transporter) (Homo sapiens, UniProt P31645); assay: Inhibition of [125I]RTI-55 radioligand binding to hSERT in HEK293 cell membranes
T3 construct: expressed in transfected cells; host or cells: HEK293 cells (ATCC), clonal, kept under puromycin selection

[10] = molecular target: T2, hDAT (human dopamine transporter); assay: Filtration assay for inhibition of [3H]dopamine uptake in HEK-hDAT cells; type: cell-based
[11] = resting period, PO, genotypes not separated

T1 sequence (P23975 whole entry): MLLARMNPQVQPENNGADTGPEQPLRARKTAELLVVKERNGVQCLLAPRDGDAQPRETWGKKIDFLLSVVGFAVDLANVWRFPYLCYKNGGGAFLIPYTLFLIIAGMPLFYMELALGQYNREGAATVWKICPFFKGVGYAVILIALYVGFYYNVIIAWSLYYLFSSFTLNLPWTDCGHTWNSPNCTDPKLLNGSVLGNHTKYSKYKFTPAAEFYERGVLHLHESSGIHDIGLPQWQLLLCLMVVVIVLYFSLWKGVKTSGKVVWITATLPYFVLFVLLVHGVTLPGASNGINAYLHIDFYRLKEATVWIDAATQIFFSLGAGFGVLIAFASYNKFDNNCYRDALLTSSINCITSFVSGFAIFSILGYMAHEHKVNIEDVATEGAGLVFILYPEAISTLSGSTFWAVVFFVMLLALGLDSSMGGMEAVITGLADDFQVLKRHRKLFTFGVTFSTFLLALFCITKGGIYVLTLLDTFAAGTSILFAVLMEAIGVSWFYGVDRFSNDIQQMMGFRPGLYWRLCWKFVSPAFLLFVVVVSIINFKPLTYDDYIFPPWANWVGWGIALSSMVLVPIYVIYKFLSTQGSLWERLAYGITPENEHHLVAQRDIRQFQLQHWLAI
T2 sequence (Q01959 whole entry): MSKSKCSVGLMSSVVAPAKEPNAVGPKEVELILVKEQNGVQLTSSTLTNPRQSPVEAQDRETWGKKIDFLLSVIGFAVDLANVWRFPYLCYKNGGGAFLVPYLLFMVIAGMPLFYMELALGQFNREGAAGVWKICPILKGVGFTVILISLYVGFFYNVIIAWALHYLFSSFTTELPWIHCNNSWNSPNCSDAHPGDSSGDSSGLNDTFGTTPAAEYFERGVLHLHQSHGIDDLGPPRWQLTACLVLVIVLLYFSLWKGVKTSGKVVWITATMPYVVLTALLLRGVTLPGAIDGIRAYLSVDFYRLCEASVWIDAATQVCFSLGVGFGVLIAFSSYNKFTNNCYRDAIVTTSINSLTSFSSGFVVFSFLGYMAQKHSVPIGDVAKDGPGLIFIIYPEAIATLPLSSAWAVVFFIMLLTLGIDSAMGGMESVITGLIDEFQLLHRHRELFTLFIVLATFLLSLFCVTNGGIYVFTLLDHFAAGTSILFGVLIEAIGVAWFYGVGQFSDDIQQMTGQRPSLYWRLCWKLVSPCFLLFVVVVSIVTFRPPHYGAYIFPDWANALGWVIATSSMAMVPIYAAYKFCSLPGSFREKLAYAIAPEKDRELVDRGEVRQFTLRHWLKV
T3 sequence (P31645 whole entry): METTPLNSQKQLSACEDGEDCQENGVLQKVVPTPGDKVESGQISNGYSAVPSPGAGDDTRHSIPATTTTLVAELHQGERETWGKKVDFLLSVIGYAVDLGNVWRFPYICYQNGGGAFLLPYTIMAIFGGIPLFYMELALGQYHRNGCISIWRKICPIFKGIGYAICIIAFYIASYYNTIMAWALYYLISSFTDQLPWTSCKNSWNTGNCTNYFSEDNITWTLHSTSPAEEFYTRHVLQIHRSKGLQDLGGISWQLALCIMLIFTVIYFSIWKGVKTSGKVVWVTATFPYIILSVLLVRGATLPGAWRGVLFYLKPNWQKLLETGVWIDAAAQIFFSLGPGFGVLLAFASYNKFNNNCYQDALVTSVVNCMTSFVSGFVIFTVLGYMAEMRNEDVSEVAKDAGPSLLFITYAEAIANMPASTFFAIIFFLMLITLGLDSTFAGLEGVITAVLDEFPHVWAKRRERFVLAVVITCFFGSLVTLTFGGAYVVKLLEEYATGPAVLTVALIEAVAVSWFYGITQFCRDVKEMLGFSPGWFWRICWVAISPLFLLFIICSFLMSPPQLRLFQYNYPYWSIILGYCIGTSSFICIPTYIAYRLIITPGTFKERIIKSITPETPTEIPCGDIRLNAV

CC(N)Cc1ccccc1 (stereo not drawn) [Amphetamine, reference compound]
Locomotor, rearing and stereotypical activities relative to vehicle controls [1]: increased
Locomotor, rearing and stereotypical activities relative to vehicle controls ([2]; 2 mg/kg SC): decreased

NC(=O)OC[C@H](N)Cc1ccccc1 [Test Compound, O-carbamoyl-(D)-phenylalaninol]
Hill coefficient [3]: −1.45 ± 0.34
Ki ([3]; read-out: [125I]RTI-55 Binding Ki): 3.7 µM
IC50 [4]: 4.4 µM
Ki [5]: 14.2 µM
Hill coefficient ([5]; HEK-hDAT cells, mean ± SEM): −0.77 ± 0.12
Duration of continuous wakefulness ([6]; narcoleptic mice, 50 mg/kg PO): up to 3 hours
Duration of continuous wakefulness ([6]; narcoleptic mice, 100 mg/kg PO): ≤ 4 h
Duration of continuous wakefulness ([6]; narcoleptic mice, 150 mg/kg PO): ≤ 5 h
Non-REM and REM sleep during the period of continuous wakefulness ([6]; narcoleptic mice, 50-150 mg/kg PO, resting period): completely suppressed
Wake-promoting effects ([6]; narcoleptic mice, active (dark) period (ZT 14), 50-150 mg/kg PO): much pronounced wake-promoting effects
Wake amounts ([6]; narcoleptic mice, active period, 100 and 150 mg/kg PO): brought up to the levels of wild-type mice
Amounts of non-REM and REM sleep ([6]; narcoleptic mice, active period, PO): brought down to the levels of wild-type mice
EEG patterns after administration ([6]; resting period, 50-150 mg/kg PO, genotypes not separated): no abnormal EEG patterns
Effect on REM sleep [6, 11]: potently reduced REM sleep
Duration of continuous wakefulness ([7]; 50 mg/kg PO): up to 3 hours
Duration of continuous wakefulness ([7]; 100 mg/kg PO): ≤ 4 h
Duration of continuous wakefulness ([7]; 150 mg/kg PO): ≤ 5 h
Non-REM and REM sleep during the period of continuous wakefulness ([7]; 50-150 mg/kg PO, resting period): completely suppressed
Wake-promoting effects ([7]; active (dark) period (ZT 14), 50-150 mg/kg PO): only small effects were observed
Mean paw withdrawal latency ([8]; 0 hr (predose)): 5.17 ± 0.27 s
Mean paw withdrawal latency ([8]; 1 hr post-injection): 6.33 ± 0.14 s
Mean paw withdrawal latency ([8]; 4 hr post-injection): 6.06 ± 0.21 s
Mean paw withdrawal latency ([8]; 8 hr post-injection): 5.63 ± 0.16 s
% of Antagonism (latency at time point / latency at 0 hr − 1) × 100 ([8]; 1 hr post-injection): (22.3%^@)
% of Antagonism (latency at time point / latency at 0 hr − 1) × 100 ([8]; 4 hr post-injection): (17.2%)
% of Antagonism (latency at time point / latency at 0 hr − 1) × 100 ([8]; 8 hr post-injection): (8.8%)
Paw withdrawal latency to a thermal stimulus (in words) ([8]; vs pre-injection (0 hr)): significantly increased the paw withdrawal latency
Ki [9]: 81.5 µM
Hill coefficient ([9]; HEK-hSERT cells, mean ± SEM): −2.28 ± 0.05
Spontaneous activity compared with amphetamine ([2]; 100 mg/kg SC vs 2 mg/kg amphetamine): suppressed activities more efficiently than amphetamine
Spontaneous activity (locomotor, rearing, stereotypical activities) ([2]; 10, 30, 100 mg/kg SC, 90 min post-injection): selectively reduced activity of the KO mice in a dose-dependent manner; also recorded: reduced activities in a dose-dependent fashion
IC50 [10]: 2.9 µM

NC(=O)C[S+]([O-])C(c1ccccc1)c1ccccc1 (stereo not drawn) [modafinil, reference compound]
Wake amount versus wild-type baseline ([6]; narcoleptic mice, active period, 200 mg/kg PO): did not bring the wake amount to that of the wild-type baseline levels
Wakefulness ([6]; narcoleptic mice, active period, 50 and 200 mg/kg PO): dose-dependently increase wakefulness
Wake promoting effect compared with test compound ([6]; resting period, 200 mg/kg PO, genotypes not separated): roughly corresponds to 50 mg/kg of test compound
Wake promoting effects ([6]; resting period, 50 and 200 mg/kg PO, genotypes not separated): modest
Effect on REM sleep [6, 11]: did not strongly reduce REM sleep

Source: US8623913B2, “Methods for treating restless legs syndrome” (priority 2010, dated 2014)
